Here are results for six compounds from patent US20020076722A1, “Antibiotic hypersusceptibility mutations in bacteria” (priority 2000, published 2002).

Assay [1] deals with Acinetobacter library cells. Briefly: Inhibition of growth of Acinetobacter library cells by ampicillin in liquid culture. The class given is cell-based, Acinetobacter sp. strain BD413. The procedure:
Clones hypersusceptible to the β-lactam drug ampicillin, an antibiotic that is well known to cause bacterial lysis, were selected. As compared to E. coli, Acinetobacter is remarkably resistant to ampicillin.
To purify the DNA released, bacterial cells from the insertional library of Acinetobacter were diluted in LB medium to OD600 0.025 and allowed to grow at 37° C. to OD600 0.1. Ampicillin was added to 5 ml aliquots of the culture at a variety of concentrations. After two hours, the cells were removed by centrifugation. DNA released into the medium in response to incubation with ampicillin was purified using a variation of the Wizard DNA purification protocols of Promega. Specifically, three grams of guanidine-HCl was dissolved in 5 ml of the culture medium and 1 ml of the slurry of DNA-binding silica resin (Promega Wizard DNA purification resin) was added. After a 5 min incubation with shaking, the resin was collected in a mini-column by passing the slurry through it with a syringe. […]
Cells of a frozen insertional library of Acinetobacter were diluted in LB medium to OD600 0.025 and allowed to grow at 37° C. to OD600 0.1, at which point ampicillin was added to 5 ml aliquots of the culture at the indicated concentrations. Two hours later the density of the cultures was measured, cells were removed by centrifugation and the DNA released into the medium was purified. […]

The test system of assay [2] is Acinetobacter library cells and SDR-selected clones. Briefly: Growth of clones replica-plated on LB-agar plates with different concentrations of ampicillin. The class given is cell-based, Acinetobacter sp. Here is the method: Each individual clone was inoculated into a well of a 96-well plate. When the cultures reached the density of approx. OD600 0.2-0.5, they were transferred by using a 6×8-pin replicator onto LB-agar plates containing kanamycin (25 μg/ml) and different concentrations of ampicillin. Plates were digitally scanned after 24 hr of incubation at 37° C. (FIG. 3). The spots indicated as Library are identical cultures from the original library and serve here as controls.
The computer scans of different plates were combined in a single set. This study has been conducted essentially as described in Example 2.

In assay [3] the test system is wild-type Acinetobacter. Kind of assay: DNA release by hexadecane in wild-type Acinetobacter. The class given is cell-based. Here is the method:
(§1) FIG. 6—Gene organization in the alkM model strain and induction of DNA release before and after SDR selection. Transformants 1 and 2 and the derivative of the transformant 1 after four cycles of SDR selection were grown to OD600 0.3 and a drop of hexadecane was added to 5 ml of the culture. After overnight incubation (induction of the alkM expression occurs only in stationary phase (Ratajczak et al., J. Bacteriol. 180(22):5822-7, 1998)) the released DNA was purified from the medium as described in the text.
(§2) A model strain of Acinetobacter with the lysis cassette of λ inserted under the control of a antibiotic-inducible promoter was constructed and determined to release DNA in response to the antibiotic inducer. A promoter of the alkM gene of Acinetobacter, which encodes an enzyme involved in degradation of hydrocarbons and whose expression is activated dramatically by hexadecane, was chosen (Ratajczak et al., 1998). The promoter-less lysis cassette was PCR-amplified from the DNA of λ. The 5′-end of the gene of S-protein, which is the limiting factor in lysis (Young, 1992), was modified by an appropriately designed PCR primer. In particular, the alternative start codon from which an inhibitory variant of S is translated has been eliminated by mutation. […]

The test system of assay [4] is alkM model strain (lysis cassette under alkM promoter). Kind of assay: Induction of DNA release by hexadecane in the alkM model strain. The class given is cell-based, Acinetobacter. The procedure:
as §1, §2

Assay [5] has as its system E. Coli. Particulars: bulgecin as known inhibitor of Slt; cited from earlier work.
In assay [6] the test system is LIT1 strain. Kind of assay: Release of DNA and growth of the LIT1 lysis reporter strain with translational inhibitors. Particulars: LIT1 clone; for DNA released in presence of antibiotic versus absence, normalized per ml of culture: 2 h (chloramphenicol) or 1.5 h (erythromycin, tetracycline). The class given is cell-based, Acinetobacter. Here is the method:
The LIT1 cells were inoculated in LB at OD600 0.05 and grown at 37° C. to OD600 0.2 at which time antibiotics were added at indicated concentrations. Two (chloramphenicol) or 1.5 (erythromycin and tetracycline) hours later the OD600 of the cultures were measured, cells were spun down and the released DNA was purified as described above. The amounts of DNA in μg normalized per milliliter of culture was determined fluorimetrically by adding an aliquot of the isolated DNA to the solution of ethidium bromide (0.5 μg/ml) and measuring the fluorescence at λex 540 and λem 580 nm (FIG. 7). The values obtained were compared with the calibration curve for known amounts of DNA.

Turning to `CC1(C)S[C@@H]2[C@H](NC(=O)[C@H](N)c3ccccc3)C(=O)N2[C@H]1C(=O)O` [ampicillin], the “growth inhibition at the concentrations used for SDR selection” value in assay [1] (1, 3 and 9 μg/ml ampicillin, little lysis) is on record as “only moderate growth inhibition”. In addition, in assay [1] (liquid culture, LB, 37° C., two hours), the “ampicillin concentration at which slow growth was still observed” value worked out at 729 µg/mL. Further, the “ampicillin concentration on plates at which library cells were still growing” value in assay [2] (original library cells, LB-agar, 24 hr) was 32 µg/mL. Moreover, the “ampicillin concentration at which clones could not grow” value in assay [2] (seventeen of 30 tested clones selected with 3 μg/ml of ampicillin) turned out to be 1 µg/mL.
As for `CCCCCCCCCCCCCCCC` [hexadecane], the “effect on release of DNA” value in assay [3] is “no effect”. Also, the “effect on optical density of the culture” value in assay [4] (model strain before SDR selection) is listed as “did not cause significant reduction”. In assay [4] (transformants, drop of hexadecane in 5 ml culture, overnight), the “effect on amount of DNA released” value is on record as “significant increase”.
Turning to bulgecin, the “effect on sensitivity to the β-lactam antibiotic cefoxitin” value in assay [5] is recorded as “increase the sensitivity”.
Consider `CC[C@H]1OC(=O)[C@H](C)[C@@H](O[C@H]2C[C@@](C)(OC)[C@@H](O)[C@H](C)O2)[C@H](C)[C@@H](O[C@@H]2O[C@H](C)C[C@H](N(C)C)[C@H]2O)[C@](C)(O)C[C@@H](C)C(=O)[C@H](C)[C@@H](O)[C@]1(C)O` [erythromycin], for which, in assay [6], the “increase of released DNA normalized per number of cells” value is given as “approximately ten-fold” and the “DNA released in presence of antibiotic versus absence, normalized per ml of culture” value is given as “four-fold”.
`O=C(N[C@H](CO)[C@H](O)c1ccc([N+](=O)[O-])cc1)C(Cl)Cl` [chloramphenicol]: in assay [6], the “increase of released DNA normalized per number of cells” value is “approximately ten-fold” and the “DNA released in presence of antibiotic versus absence, normalized per ml of culture” value is listed as “four times more”.
On to `CN(C)[C@@H]1C(O)=C(C(N)=O)C(=O)[C@@]2(O)C(O)=C3C(=O)c4c(O)cccc4[C@@](C)(O)[C@H]3C[C@@H]12` [tetracycline], for which the “increase of released DNA normalized per number of cells” value in assay [6] is around 35 fold.
